For series [1], the system named is Meloidogyne incognita. Description: Nematocidal activity against Meloidogyne incognita (root-knot nematode) assessed as mortality at 100 ug/ml after 24 hr. The format is functional.
Series [2] deals with Aphelenchoides besseyi. Description: Nematocidal activity against Aphelenchoides besseyi assessed as mortality after 24 hr. The format is functional.
Series [3] relates to Meloidogyne incognita. Kind of series: Nematocidal activity against Meloidogyne incognita (root-knot nematode) assessed as mortality after 24 hr. The format is functional.
Series [4] can be described thus: Toxicity in Rattus norvegicus (rat). The format is organism-based. Particulars: in vivo, read-out: LC50 (the source's name).
In series [5] the test system is Aphelenchoides besseyi. Kind of series: Nematocidal activity against Aphelenchoides besseyi assessed as mortality at 200 ug/ml after 24 hr. The format is functional.

From ChEMBL document CHEMBL3044786, “Synthesis and nematocidal activity of ascaridole derivatives against Meloidogyne incognita and Aphelenchoides besseyi” (J Pestic Sci, 2007) come the findings set out here.

Converted amounts (≈) assume the structure as drawn.

By mortality is commonly meant the percentage killed. The term LC50 denotes the concentration that kills 50% of the test population.

As for `CC1=C[C@@H]2OO[C@H]1C[C@@H]2C(C)C`, the mortality at 100 µg/mL in the series with Meloidogyne incognita [1] turned out to be 100%. The LC50 came out at 110 µg/mL (≈ 654 µM) in the series on Aphelenchoides besseyi [2] and 51 µg/mL (≈ 303 µM) in the series on Meloidogyne incognita [3].

As for `CNC(=O)O/N=C(\SC)C(=O)N(C)C` [OXAMYL], the LD50 in series [4] was 3.1 mg/kg. For the same compound, the median lethal concentration (LC50) in the series with Aphelenchoides besseyi [2] came to 0.1 µg/mL (≈ 0.456 µM); in the series on Meloidogyne incognita [3] it was 0.07 µg/mL (≈ 0.319 µM).

`COC(=O)C12C=CC(C(C)C)(CC1)OO2` (stereo not drawn): the mortality at 100 µg/mL in the series on Meloidogyne incognita [1] stood at 100%. For the same compound, the mortality at 200 µg/mL with Aphelenchoides besseyi [5] was 100%. Further, the LC50 with Aphelenchoides besseyi [2] and in the series on Meloidogyne incognita [3] was 2 µg/mL (≈ 9.42 µM) throughout.

Turning to `CC1=C[C@H]2OO[C@@H]1C[C@@H]2C(C)C`, the mortality at 100 µg/mL in the series with Meloidogyne incognita [1] was 100%. Moreover, the LC50 is 69 µg/mL (≈ 410 µM) in the series with Aphelenchoides besseyi [2] and 25 µg/mL (≈ 149 µM) with Meloidogyne incognita [3].

Regarding `CC(C)C12C=CC(CO)(CC1)OO2` (stereo not drawn), the mortality at 100 µg/mL in the series with Meloidogyne incognita [1] turned out to be 100%. Moreover, the mortality at 200 µg/mL with Aphelenchoides besseyi [5] was below 50%. Further, the LC50 stood at 402 µg/mL (≈ 2180 µM) in the series with Aphelenchoides besseyi [2] and 55 µg/mL (≈ 299 µM) in the series with Meloidogyne incognita [3].

`CC(C)C12C=CC(C(=O)O)(CC1)OO2` (stereo not drawn): the mortality at 100 µg/mL in the series on Meloidogyne incognita [1] amounted to 100%. Further, the mortality at 200 µg/mL in the series on Aphelenchoides besseyi [5] worked out at 100%. For the same compound, the LC50 in the series with Aphelenchoides besseyi [2] is 4 µg/mL (≈ 20.2 µM); with Meloidogyne incognita [3], 2 µg/mL (≈ 10.1 µM).

Turning to `CC(C)C12C=CC(C)(CC1)OO2` (stereo not drawn) [ASCARIDOLE], in the series with Meloidogyne incognita [1], the mortality at 100 µg/mL worked out at 100%. For the same compound, the mortality at 200 µg/mL with Aphelenchoides besseyi [5] was below 50%. The LC50 in the series with Aphelenchoides besseyi [2] came out at 365 µg/mL (≈ 2170 µM); in the series on Meloidogyne incognita [3], 52 µg/mL (≈ 309 µM).

Consider `C=C(C)[C@H]1C[C@H]2OO[C@@H]1C(OC(C)=O)=C2C`, for which the mortality at 100 µg/mL in the series with Meloidogyne incognita [1] came to 100%. The mortality at 200 µg/mL in the series on Aphelenchoides besseyi [5] was below 50%. Further, the LC50 in the series on Aphelenchoides besseyi [2] was 302 µg/mL (≈ 1350 µM); in the series on Meloidogyne incognita [3], 50 µg/mL (≈ 223 µM).

On to `C=C(C)[C@H]1C[C@@H]2OO[C@H]1C(OC(C)=O)=C2C`, for which, in the series on Meloidogyne incognita [1], the mortality at 100 µg/mL was 100%. Also, the LC50 in the series on Aphelenchoides besseyi [2] was 306 µg/mL (≈ 1360 µM); in the series with Meloidogyne incognita [3], 51 µg/mL (≈ 227 µM).

Turning to `C=C(C)[C@H]1C[C@H]2OO[C@@H]1C=C2C`, in the series with Meloidogyne incognita [1], the mortality at 100 µg/mL worked out at 100%. The figures for the LC50 in the series on Aphelenchoides besseyi [2] and in the series with Meloidogyne incognita [3] were 21 µg/mL (≈ 126 µM) and 12 µg/mL (≈ 72.2 µM), respectively.

Take `C=C(C)[C@H]1C[C@@H]2OO[C@H]1C=C2C`: the mortality at 100 µg/mL in the series on Meloidogyne incognita [1] was found to be 100%. The LC50 came out at 50 µg/mL (≈ 301 µM) in the series with Aphelenchoides besseyi [2] and 23 µg/mL (≈ 138 µM) in the series on Meloidogyne incognita [3].
